Test results taken from patent US6500830B1, “Conversion of modification D to modification A of doxazosin mesylate” (Knoll Aktiengesellschaft, priority 1998, dated 2002).
Structures can show the parent of a compound that is named as a salt.

Test: Dissolution of doxazosin mesylate in recrystallisation solvents
Assay type: physicochemical
Excerpt: Although doxazosin is mostly used as monomesylate, the preparation of this salt has not to date been described. […] The product isolated after cooling the suspension contains chloroform, which is a solvent which is objectionable from the toxicological viewpoint and which can be removed only with difficulty and not without adverse effects on the active ingredient. […] In addition, the yield is poor and the material proves to be X-ray amorphous. […] Hot filtration of the suspension affords a small yield of the described ethanol modification A as residue on the filter. Cooling the filtrate results in only a moderate yield of impure A modification.

## COc1cc2nc(N3CCN(C(=O)C4COc5ccccc5O4)CC3)nc(N)c2cc1OC (stereo not drawn) [doxazosin mesylate, 4-amino-2-[4-(1,4-benzodioxane-2-carbonyl)piperazin-1-yl]-6,7-dimethoxyquinazoline]
75 times the amount of chloroform at the boiling point
  solubility in chloroform: does not dissolve
350 times the amount of ethanol at the boiling point of the solvent
  solubility in ethanol: does not dissolve
water, compared with chloroform
  solubility in water: dissolves better in water
